Laboratory results reported in patent US20130136809A1, “7-HYRDROXYFRULLANOLIDE ITS ANALOGS FOR PREVENTION CONTROL AND TREATMENT OF METABOLIC DISORDERS” (LAILA NUTRACEUTICALS, priority 2009, published 2013).

Key:
CD36 = test: Immunoblot of CD36 expression in 3T3-L1 adipocytes; assay type: cell-based, mouse; conditions: 1 ug/ml; normalized with actin
Method: (§1) Experimental protocol: Mouse pre-adipocyte 3T3-L1 cells are maintained in Dulbecco's Modified Eagles Medium (DMEM) supplemented with 2 mM glutamine, 4.5 g/L glucose and 10% fetal bovine serum. Equal number of cells was plated in each well of 24-well culture plates. Cells were pre-treated separately with 1 μg/mL 7-hydroxyfrullanolide for 2 h and followed by addition of differentiation medium containing 500 nM insulin, 1.0 μM dexamethasone, and 0.5 mM isobutylmethylxanthine (IBMX) for 48 h. Thereafter, cells were further incubated with post differentiation medium (DMEM containing 100 nM insulin) in presence or absence of 7-HF. […] Protein content was measured in Bradford method by using Coomassie blue dye and cell lysates were stored in aliquots at −80° C. until further use. The modulation of adipocyte differentiation markers such as Peroxisome proliferator-activated receptor gamma (PPARγ), CD36, adipocyte fatty acid binding protein (aP2); and intracellular lipid droplet surface associated protein, perilipin expression were evaluated by immunoblot assay.
(§2) Inhibition of protein expression of biomarker molecules adipocytes in presence or absence of 7-hydroxyfrullanolide (7-HF) was evaluated in immunoblot assay. […] Band intensities were calculated densitometrically and normalized with expression of actin in respective samples.

perilipin = test: Immunoblot of perilipin expression in 3T3-L1 adipocytes; assay type: cell-based, mouse; conditions: 1 ug/ml; normalized with actin
Method: as §1, §2

[1] = tested on: 3T3-L1 pre-adipocyte cells; test: Pro-lipolytic activity in differentiated adipocytes (free glycerol release); assay type: cell-based, mouse; conditions: 5 μg/mL; increase in glycerol release
Method: The lipolytic activity was assessed in mature adipocytes as per the procedure of Chemicon International, USA, by measuring free glycerol secreted into the culture medium. One hundred thousand 3T3-L1 […] pre-adipocyte cells in Dulbecco's Modified Eagles Medium (DMEM) containing 10% Fetal Bovine Serum (FBS) were taken into each well of a 24-well plate and incubated for 48 h at 37° C. and 5% CO2. The differentiation of pre-adipocyte cells was initiated in a differentiation medium containing 10 µg/ml insulin, 1.0 µM dexamethasone, and 0.5 mM isobutylmethylxanthine (IBMX). The cells were differentiated for 5 days and then the culture medium was removed. The monolayer was washed twice with wash solution (Hank's balanced salt solution), and then 250 µL of incubation solution (Hank's balanced salt solution plus 2% bovine serum albumin) was added to the wells in triplicate in presence or absence of 7-hydroxyfrullanolide or its analogs or the extracts containing 7-HF, and the cells were further incubated for 16 h. To measure lipolysis, 200 μL of free glycerol assay reagent was added to 25 µL of culture supernatants and controls containing glycerol standard. The samples and the controls were incubated for 15 min, and the absorbance was read at 540 nm. A standard curve constructed from the glycerol was used to calculate the concentration of free glycerol in the culture supernatants. The percentage increase in glycerol concentration in the sample solutions compared to the control containing the known concentrations of glycerol corresponds to the percentage acceleration of lipolysis by test compound.

aP2 = test: Immunoblot of aP2 expression in 3T3-L1 adipocytes; assay type: cell-based, mouse; conditions: 1 ug/ml; normalized with actin
Method: as §1, §2

[2] = tested on: J774 mouse macrophage cells; test: Lipid accumulation in high glucose induced macrophage cells (in vitro model of atherosclerosis); assay type: cell-based; conditions: 1 μg/ml; 600 mg/dL glucose, 5 days
Method: Experimental protocol: This was evaluated in glucose induced J774, mouse macrophage cells. Briefly, the cells were cultured in DMEM with 2 mM Glutamine, 100 U/mL penicillin, […] streptomycin and 10% fetal bovine serum (Hyclone, Logan, Utah). Equal number of cells was seeded into 35 mm petri dishes (Corning, USA) one day before the experiment. The culture media was replaced with fresh, glucose free DMEM supplemented with 10% fetal bovine serum. 7-HF was diluted at […] and all cultures were pre-incubated for 2 hours at 5% CO2 at 37° C., and then incubated with 600 mg/dL of glucose for 5 days. Representative photomicrographs showing inhibition of lipid accumulation by 7-HF in high glucose induced macrophage cells of an in vitro model of atherosclerosis are shown in Figure IV. The control culture was supplemented with 100 mg/dL glucose. The cells were harvested and lysed with lysis buffer. Cell lysates were clarified at 14,000 g. Protein concentration was measured by Bradford method.

PTP-1B = PTP-1B activity in 3T3-L1 cell lysates (pNPP hydrolysis); assay type: cell-based, mouse; conditions: 1.0 or 2.5 μg/ml; 48 h
Method: Equal number of 3T3-L1 mouse preadipocytes was seeded into cell culture dishes. After 24 h, the cells were treated either with different concentrations of 7-HF or […] Sodium vanadate ([…]) for further 48 h. Thereafter, the washed cells were lysed with cell lysis buffer and the clarified at 14,000 g for 10 min at 4° C. The protein concentrations were calculated by Bradford method and the cell lysates were reacted with equal volume of substrate reagent containing 10 mM p-nitrophenyl phosphate (pNPP). After 1 h incubation at 37° C., the reaction was stopped with 1N NaOH and the developed color was read at 405 nm. The specific enzyme activity was calculated by using an extinction coefficient of 1.78×10^4 M^−1cm^−1 for pNPP at A405. The inhibition shown by 7-HF is depicted in Figure VII.

With `C=C1C(=O)O[C@H]2C3=C(C)CCC[C@]3(C)CC[C@@]12O` [7-HF (1), 7-hydroxyfrullanolide] the CD36 protein expression (CD36) was “down-regulation”, the perilipin protein expression (perilipin) was “down-regulation” and the “% acceleration of lipolysis” value [1] was 47.8%. The aP2 protein expression (aP2) was “down-regulation”, the “lipid accumulation in high glucose induced macrophage cells” value [2] was “inhibited lipid accumulation” and the PTP-1B activity (PTP-1B) was “significant inhibition”.
